According to patent US8674113B2, “Compounds” (Boehringer Ingelheim International GmbH, priority 2010, dated 2014):

Columns and labels:
[1] = target: recombinant human mPGES-1 (Homo sapiens (Human), UniProt O14684); test: mPGES-1 enzyme assay (HTRF detection of PGE2); format: biochemical; conditions: recombinant human mPGES-1 microsomes, PGH2 2 μM, 60 seconds; read-out: mPGES-1 inhibitory effect IC50 in the enzyme assay
Description: Microsomes from Rosetta E. coli bacteria expressing recombinant human mPGES-1 can be derived as described below:
Inoculate 5 ml LB with Ampicilin (50 μg/ml) and Chloramphenicol (34 μg/ml) with bacteria from freeze culture. Incubate 8 h at 37° C. with 200 rpm. Thereafter, inoculate 500-1000 ml LB containing Amp and Chloro with the 5 ml on culture and grow to OD640 of 0.8-1.0. Chill the culture to +4° C. before induction. Induce the culture with IPTG at a final concentration of 400 μM. Express the protein at room temp 18-23° C. with 200 rpm shaking over night.
The following steps can be performed on the following day: • 1. Spin down the cells in 250 ml centrifuge flasks for 15 min at 7000 rpm (Beckmann Coulte Avanti J-E centrifuge) • 2. Dissolve the pellet from 250 ml culture in 12.5 ml homogenization buffer • 3. (15 mM Tris-HCL pH8, 1 mM EDTA pH8, […], 2.5 mM GSH, 1 Tablet Protease inhibitor per 50 ml buffer) • 4. Disintegrate the cells by sonication, 5×10 seconds at 48% amplitude of a 750 W sonifier • 5. Add 2.5 ml MgCl2 (100 mM) and DNase 12.5 μl (0.8 mg/ml) and incubate on ice for 30 min • 6. Spin down the bacteria debris and save the supernatant, 7000 rpm for 15 min • 7. Isolate the protein containing membranes in the supernatant by ultracentrifugation 120000×g for 2 hour at 4° C. (Sorvall T880 rotor). • 8. Discard the supernatant and dissolve the pellet in 20 mM Potassium phosphate buffer pH7.4 (KH2PO4 and K2HPO4) buffer by sonication (5×10 s, 30% of a 50 W sonifier) and aliquot the enzyme and store aliquots at −80° C.
Before each experiment is performed an aliquot of the enzyme is thawed and it can then be dissolved in 0.1 M Potassium phosphate buffer pH7.4 (KH2PO4 and K2HPO4) buffer containing 2.5 mM GSH.
The aim of this assay is to determine the affinity of a test compound for the mPGES-1 enzyme.
47 μl of recombinant human mPGES-1 (˜0.5 μg protein/well) containing microsomal suspension in a buffer containing GSH, (2.5 mmol/L L-Glutathione reduced, dissolved in 0.1 mol/L Phosphat Buffer pH 7.4) is dispensed in a 384-well plate and thereafter 1 μl of the test compound(s) is/are added and incubated for 25 minutes at room temperature. The enzyme reaction is started by the addition of 2 ul PGH2 (final conc 2 μM) disolved in water-free Diglyme. After 60 seconds the reaction is terminated by addition of a stop solution containing FeCl2 (10 μL 0.074 mol/l FeCl2). The samples are diluted between 1:25 in PBS (Phosphate Buffered Saline). 10 μl of the diluted samples are transferred to 384-well low volume plate. In order to quantify the amount of PGE2 that has been formed, a homogenous time resolved fluorescent (HTRF) detecting of PGE2 has been performed using a commercially available kit from Cisbio according to the manufactures recommendation. This HTRF-based assay has been described in detail (see: Goedken et al., J Biomol Screen, 2008, 13(7), 619-625). Briefly, the diluted samples are mixed with 5 μl PGE2-d2 conjugate and 5 μl anti-PGE2 cryptate conjugate. After an incubation period of the plates over night, the fluorescence is measured by the use of an appropriate microplate reader.
The fluorescence of Europium cryptate (maxex=307 nm, maxem=620 nm) and d2-PGE2 (maxex=620 nm, maxem=665 nm) are measured.
The extent of the specific HTRF is measured as a ratio of the emission intensity at 665 nm vs. that at 620 nm at an excitation puts of 320 nm. The quantification plate contains also wells with different concentrations of PGE2 as calibration curve for the calculation of the PGE2 concentrations from the HTRF ratio values.
From all mPGES enzyme assay the background is subtracted and the IC50 is calculated over a nonlinear regression with conventional software.

mPGES-1 in A549 cells = mPGES-1 in A549 cells (Homo sapiens (Human), UniProt O14684); test: A549 cell-based assay (PGE2 formation, 50% human serum); conditions: IL-1β 5 ng/ml, 10 nM arachidonic acid, 20-24 h, read-out: mPGES-1 inhibitory effect IC50 in the cell assay
Sequence of mPGES-1 in A549 cells (O14684 whole entry): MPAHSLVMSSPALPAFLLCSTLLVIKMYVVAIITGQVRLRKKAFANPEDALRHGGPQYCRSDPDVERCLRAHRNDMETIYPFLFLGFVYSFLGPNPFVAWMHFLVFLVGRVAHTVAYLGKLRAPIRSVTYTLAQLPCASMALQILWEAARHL
Summary of the method: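 A549 cells in F-12K with 50% human serum were stimulated 20-24 h with 5 ng/ml IL-1β and 10 nM arachidonic acid in presence of compound or vehicle. PGE2 in the cell-free medium was measured by HTRF, normalised to vehicle (100%). IC50 from 6-8 point titrations.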

Sequence of recombinant human mPGES-1 (O14684 whole entry): as above

Row | IC50 [1] [nM] | IC50 (mPGES-1 in A549 cells) [nM] | SMILES
1 | 2 | < 1 | Cn1c(Nc2c(Cl)ccc(CNC(=O)C(C)(C)C)c2Cl)nc2cc(C(=O)NCCC(F)(F)F)c(N3CCC(C(F)(F)F)CC3)cc21 [Example 62]
2 | 3 | 6 | Cn1c(Nc2c(Cl)ccc(CNC(=O)C(C)(C)C)c2Cl)nc2cc(C(=O)N[C@H]3CC[C@@H](C(F)(F)F)CC3)c(N3CC4CC4C3)cc21 (stereo partly drawn) [Example 63]
3 | 3 | 2.6 | Cn1c(Nc2c(Cl)ccc(CNC(=O)C(C)(C)C)c2Cl)nc2cc(C(=O)Nc3ccc(OC(F)(F)F)cc3)c(N3CC4CC4C3)cc21 (stereo not drawn) [Example 64]
4 | 1 | 1 | Cn1c(Nc2c(Cl)ccc(CNC(=O)C(C)(C)C)c2Cl)nc2cc(C(=O)Nc3ccc(F)c(Cl)c3)c(N3CC4CC4C3)cc21 (stereo not drawn) [Example 65]
5 | 3 | 1.6 | Cn1c(Nc2c(Cl)ccc(CNC(=O)C(C)(C)C)c2Cl)nc2cc(C(=O)Nc3ccc(Cl)c(F)c3)c(N3CC4CC4C3)cc21 (stereo not drawn) [Example 66]
6 | 4 | 1 | Cn1c(Nc2c(Cl)ccc(CNC(=O)C(C)(C)C)c2Cl)nc2cc(C(=O)NCC(F)(F)C(F)(F)F)c(N3CCOCC3)cc21 [Example 68]

More lines, now with the values behind:

Row | SMILES | IC50 [1] [nM] | IC50 (mPGES-1 in A549 cells) [nM]
7 | Cn1c(Nc2c(Cl)ccc(CNC(=O)C(C)(C)C)c2Cl)nc2cc(C(=O)NC3CCC(F)(F)CC3)c(N3CCC(C(F)(F)F)CC3)cc21 [Example 60] | 1 | 1
8 | Cn1c(Nc2c(Cl)ccc(CNC(=O)C(C)(C)C)c2Cl)nc2cc(C(=O)N[C@H]3CC[C@@H](C(F)(F)F)CC3)c(N3CCC(C(F)(F)F)CC3)cc21 [Example 61] | 2 | < 1
9 | Cn1c(Nc2c(Cl)ccc(CNC(=O)C(C)(C)C)c2Cl)nc2cc(C(=O)N[C@H]3CC[C@H](C(F)(F)F)CC3)c(N3CCOCC3)cc21 [Example 67] | 4 | 2
10 | Cn1c(Nc2c(Cl)ccc(CNC(=O)C(C)(C)C)c2Cl)nc2cc(C(=O)N[C@H]3CC[C@H](C(F)(F)F)CC3)c(N3CCC(F)(F)CC3)cc21 [Example 69] | 2 | 1
11 | Cn1c(Nc2c(Cl)ccc(CNC(=O)C(C)(C)C)c2Cl)nc2cc(C(=O)NCC(F)(F)C(F)(F)F)c(N3CCC(F)(F)CC3)cc21 [Example 70] | 2 | 2
12 | CC(C)(C)C(=O)NCc1ccc(Cl)c(Nc2nc3cc(C(=O)NCC(F)(F)C(F)(F)F)c(N4CCOCC4)cc3n2CC(F)F)c1Cl [Example 72] | 4 | 4
13 | CC(C)(C)C(=O)NCc1ccc(Cl)c(Nc2nc3cc(C(=O)NCC(F)(F)C(F)(F)F)c(N4CCC(F)(F)CC4)cc3n2CC(F)F)c1Cl [Example 74] | 3 | 4
14 | CC(C)(C)C(=O)NCc1ccc(Cl)c(Nc2nc3cc(C(=O)N[C@H]4CC[C@H](C(F)(F)F)CC4)c(N4CCC(C(F)(F)F)CC4)cc3n2CC(F)F)c1Cl [Example 75] | 1 | 2
15 | CC(C)(C)C(=O)NCc1ccc(Cl)c(Nc2nc3cc(C(=O)NCC(F)(F)C(F)(F)F)c(N4CCC(C(F)(F)F)CC4)cc3n2CC(F)F)c1Cl [Example 76] | 1 | 1
16 | CC1(O)CCN(c2cc3c(cc2C(=O)N[C@H]2CC[C@H](C(F)(F)F)CC2)nc(Nc2c(Cl)ccc(CNC(=O)C(C)(C)F)c2Cl)n3CC(F)F)CC1 [Example 78] | 2 | < 1
17 | CC(C)(C)C(=O)NCc1ccc(Cl)c(Nc2nc3cc(C(=O)N[C@H]4CC[C@H](C(F)(F)F)CC4)c(N4CC[C@@H](F)C4)cc3n2CC(F)F)c1Cl [Example 79] | 3 | 1
18 | CC(C)(F)C(=O)NCc1ccc(Cl)c(Nc2nc3cc(C(=O)N[C@H]4CC[C@H](C(F)(F)F)CC4)c(N4CCC(O)(C(F)(F)F)CC4)cc3n2CC(F)F)c1Cl [Example 80] | 2 | 1
